Series [1] in a line: Repeated administration toxicity experiment in rats. In kind it is in vivo, SD rats. Conditions: for Clinical observation: course after ataxia / Clinical observation: animals showed ataxia immediately after administration / Body weight / food intake / Clinical observation: died during recovery (among animals with ataxia): tail vein injection for 7 consecutive days; for Clinical observation: animals showed ataxia immediately after administration / Clinical observation: died during recovery (among animals with ataxia): main trial group + TK group; for gross dissection: lungs: gross dissection on D8 after administration; for Body weight / food intake: 0.3 mg/kg and 1.0 mg/kg, Compound 2 stated relative to Dxd at the same dose. How it is done: Test sample preparation: The test sample was weighed according to the predetermined weight into a glass vial. First, 1 mL of DMSO was added and mixed until the test sample was dissolved, followed by the addition of 1 mL of Solutol HS-15.
SD rats (purchased from Beijing Vital River) were used as test animals. […] During the acclimation period, one cage-side observation was conducted daily; during the administration period, all animals were subjected to clinical observations twice daily (morning and afternoon). Reactions in various aspects, including the skin, fur, eyes (sclera), ears, nose, oral cavity, chest, abdomen, urogenital area, limbs, as well as respiration, movement, urination, defecation (including urine and feces color), and behavioral changes, were recorded. Daily weight data of the main test group animals were documented. For animals scheduled for dissection, terminal body weight (fasted) was measured before dissection. The food intake of the test animals was also recorded.
At the end of the administration, gross dissection was performed on D8 after administration.

The next series can be described thus: Pharmacokinetics in rats. The class given is in vivo, SD rats. The following applies: 3 mg/kg, Rat PK (IV, 3 mpk), single injection, plasma, Formulation A. Here is the method:
Objective: To evaluate the pharmacokinetic characteristics of the compounds of the present disclosure in rats.
SD rats (purchased from Beijing Vital River Laboratory Animal Technology Co., Ltd.) were used, with 6 rats per group (half male and half female), randomly grouped. A single injection of the sample (Formulation A: 5% DMSO + 95% (15% sulfobutyl-β-cyclodextrin-normal saline), diluted according to the dose) was administered. Blood samples were collected at crossover time points: before administration and at 5 min, 30 min, 1 h, 2 h, 4 h, 6 h, 8 h, 10 h, and 24 h after administration. Plasma was collected, and the sample concentration in plasma was detected by LC-MS. Table 3-1. PK parameters of the compounds of the present disclosure in rats

Series [2] has as its system NCI-N87 (human gastric cancer cells). The experiment in a line: In vitro antitumor activity (cell proliferation inhibition, CellTiter-Glo). The class given is cell-based. Conditions: 48 hours of incubation. The text has this: (§1) Objective: To detect the in vitro inhibitory activity of the compounds of the present disclosure against NCI-N87 (human gastric cancer cells), Calu-3 (human lung adenocarcinoma cells), MDA-MB-453 (human breast cancer cells), KPL-4 (human breast cancer cells), or MDA-MB-468 (human breast cancer cells).
(§2) Tumor cells in the logarithmic growth phase, including NCI-N87 (source: ATCC, catalog number: CRL-5822), Calu-3 (source: ATCC, catalog number: HTB-55), MDA-MB-453 (source: ATCC, catalog number: HTB-131), KPL-4 (source: Nanjing Cobioer Biosciences, catalog number: CBP60379), or MDA-MB-468 (source: ATCC, catalog number: HTB-132), were seeded into cell plates at a density of 5,000 cells/well. The cell plates were then incubated in a 37°C, 5% CO2 cell culture incubator for 12-16 hours. 100 µL of sample (starting at 10 µM, 4-fold dilution, 10 concentrations) was added to each well. After gentle shaking, the plates were placed in the incubator for further incubation. After 48 hours of incubation, 70 µL of CellTiter-Glo™ (Promega, catalog number: G7572) working solution was added, gently shaken to lyse the cells, and the plates were read on a microplate reader. The cell proliferation inhibition rate was calculated using the following formula: cell proliferation inhibition rate = (1-sample well/control well)×100%. GraphPad Prism 8.0 software was used to plot the Log value of sample concentration as the x-axis and Cytotoxicity% as the y-axis. The data were analyzed by Nonlinear regression (curve fit) to obtain the IC50 values for each sample, with specific results shown in Tables 1-1 and 1-2. Table 1-1. In vitro activity test results of the compounds of the present disclosure

In series [3] the test system is MDA-MB-453 (human breast cancer cells). The series is described as above. The following applies: MDA-MB-453 cells, 48 hours of incubation. The class given is cell-based.
Description: as §1, §2

Series [4] concerns MDA-MB-468 (human breast cancer cells). Described as above. In kind it is cell-based. Conditions: MDA-MB-468 cells, 48 hours of incubation.
Description: as §1, §2

Series [5] concerns Calu-3 (human lung adenocarcinoma cells). The series is described as above. In kind it is cell-based. Conditions: Calu-3 cells, 48 hours of incubation.
Description: as §1, §2

Another series can be described thus: Pharmacokinetics in mice. The class given is in vivo, Balb/c mice. Conditions: 3 mg/kg, Mouse PK (IV, 3 mpk), single injection, plasma. From the text: Objective: To evaluate the pharmacokinetic characteristics of the compounds of the present disclosure in mice.
Balb/c mice were taken, with 12 mice per group (half male and half female), randomly grouped, and administered a single injection of the sample (Formulation A: 5% DMSO + 95% (15% sulfobutyl-β-cyclodextrin-normal saline), Formulation B: 5% DMSO-10% Solutol HS 15-85% normal saline, diluted according to the dose). Blood samples were collected at crossover time points, including before administration and at 5 min, 30 min, 1 h, 2 h, 4 h, 6 h, 8 h, 10 h, and 24 h after administration. Plasma was collected, and the sample concentration in plasma was detected by LC-MS. Table 2-1. PK parameters of the compounds of the present disclosure in mice

A short description of series [6]: In vitro plasma stability. In kind it is in vitro ADME. Conditions: 37°C, 5 µM. How it is done:
398 µL of plasma was taken and preheated to 37°C, then co-incubated for 15 minutes. 2 µL of the sample solution was added to the plasma to prepare a final sample concentration of 5 µM. The above solution was co-incubated at 37°C, and 50 µL aliquots were taken at 0, 15, 30, 60, and 120 minutes, followed by the addition of 450 µL of ice-cold acetonitrile (containing the internal standard). The solution was vortexed for 10 minutes, centrifuged, and the remaining content of the parent substrate was detected by the LC-MS/MS method. For specific results, refer to Table 4-1. Table 4-1. Plasma stability of the compounds of the present disclosure

The test system of series [7] is KPL-4 (human breast cancer cells). The experiment in a line: In vitro antitumor activity (cell proliferation inhibition, CellTiter-Glo). The class given is cell-based. Conditions: KPL4, KPL-4 cells, 48 hours of incubation.
Description: as §1, §2

The mark [8] stands for this setting: in vivo, Formulation A (5% DMSO + 95% (15% sulfobutyl-β-cyclodextrin-normal saline)).
Setting [9] is: in vivo, Formulation B (5% DMSO-10% Solutol HS 15-85% normal saline).
[10] abbreviates: both sexes, Balb/c, Formulation A (5% DMSO + 95% (15% sulfobutyl-β-cyclodextrin-normal saline)).

pIC50: −log10 of the molar value.

For the compound `[2H]C1([2H])OC(=O)[C@](O)(CC)c2cc3n(c(=O)c21)Cc1c-3nc2cc(F)c(C)c3c2c1[C@@H](NC(=O)CO)CC3` [Compound 2], in series [1] (0.3 mpk dose group), the “Clinical observation: course after ataxia” value (“Clinical observation: course” for short) is recorded as “then gradually recovered” and the “Clinical observation: animals showed ataxia immediately after administration” value (“Clinical observation … after administration” for short) is on record as 13%. Besides, in series [1] (1 mpk dose group), the “Clinical observation: course” value is reported as “then gradually recovered” and the “Clinical observation … after administration” value is given as 25%. In addition, in [1] (female rats, compared with the control (Dxd) group at the same dose), the “average food intake, ♀ rats” value was “For ♀ rats, the average food intake in the Compound 2 group was higher than that in the control group at the same dose;”. Also, in series [1], the “gross dissection: lungs” value is recorded as “no such pathological changes were found in any dose group”; the Body weight entry was “At the same dose, the effects of Compound 2 and Dxd on rat body weight and food intake were generally comparable;”; the food intake entry was “At the same dose, the effects of Compound 2 and Dxd on rat body weight and food intake were generally comparable;”. In “Pharmacokinetics in rats” (in vivo), this compound gave an AUC(0-inf) of 218 ng·h/mL, a Cmax of 406 ng/mL, a clearance of 235 mL/min/kg and a half-life of 39.7 min. Further, the pIC50 in [2] was 8.14. In [3], this compound gave a pIC50 of 6.94. For the same compound, the pIC50 in series [4] is 9.01. The pIC50 in [5] was 7.57. Besides, in the series “Pharmacokinetics in mice” (setting [8]), the Cmax came to 449 ng/mL and the half-life was 27.3 min.

For `[2H]C1([2H])OC(=O)[C@](O)(CC)c2cc3n(c(=O)c21)Cc1c-3nc2cc(F)c(C)c3c2c1[C@@H](NC(=O)[C@H](O)C1CC1)CC3` [Compound 3], the “Residual content of parent toxin at 120 minutes (relative to 0 minutes)” value (“Residual content … (relative to 0 minutes)” below) in series [6] (CD1 mouse plasma) is reported as 104.97%; in [6] (Human plasma), 105.54%. The pIC50 is 8.36 in series [2], 7.40 in series [3], 9.01 in [4] and 7.77 in series [5]. In addition, the concentration in the series “Pharmacokinetics in mice” (setting [9]) peaked (Cmax) at 4300 ng/mL. Moreover, the half-life in “Pharmacokinetics in mice” (setting [9]) is 36.4 min.

`[2H]C1([2H])OC(=O)[C@](O)(CC)c2cc3n(c(=O)c21)Cc1c-3nc2cc(F)c(C)c3c2c1[C@@H](NC(=O)[C@@H](O)C1CC1)CC3` [Compound 4]: the pIC50 in series [2] is 8.39; in [3], 7.26; in [4] it was 9.06; in series [5] it was 7.71.

With `[2H]C1([2H])OC(=O)[C@](O)(CC)c2cc3n(c(=O)c21)Cc1c-3nc2cc(F)c(C)c3c2c1[C@@H](NC(=O)C[C@@H](C)O)CC3` [Compound 5], the results for the “Residual content … (relative to 0 minutes)” value in series [6] (CD1 mouse plasma) and in [6] (Human plasma) were 96.02% and 107.73%, respectively. Besides, the pIC50 is 8.04 in series [2], 7.02 in [3], 8.89 in series [4] and 7.48 in series [5]. In addition, the Cmax in the series “Pharmacokinetics in mice” (setting [9]) was 3520 ng/mL. In “Pharmacokinetics in mice” (setting [9]), the half-life is 40.4 min.

As to `[2H]C1([2H])OC(=O)[C@](O)(CC)c2cc3n(c(=O)c21)Cc1c-3nc2cc(F)c(C)c3c2c1[C@@H](NC(=O)C[C@H](C)O)CC3` [Compound 6], the “Residual content … (relative to 0 minutes)” value came out at 105.93% in [6] (CD1 mouse plasma) and 94.89% in series [6] (Human plasma). The pIC50 in series [2] is 7.87; in [3], 6.92; in [4], 8.51; in [5], 7.33. The concentration in the series “Pharmacokinetics in mice” (setting [9]) peaked (Cmax) at 2580 ng/mL. Also, the half-life in “Pharmacokinetics in mice” (setting [9]) was 40.7 min.

On to `[2H]C1([2H])OC(=O)[C@](O)(CC)c2cc3n(c(=O)c21)Cc1c-3nc2cc3c(cc2c1CCCO)OCO3` [Compound 12], for which the pIC50 is 8.14 in [2], 8.77 in series [4] and 8.15 in [7].

Turning to `CC[C@@]1(O)C(=O)OCc2c1cc1n(c2=O)Cc2c-1nc1cc(F)c(C)c3c1c2[C@@H](NC(=O)CO)CC3` [Dxd], in [1] (0.3 mpk dose group), the “Clinical observation: course” value was “the other rats gradually recovered”, the “Clinical observation … after administration” value was 31% and the “Clinical observation: died during recovery (among animals with ataxia)” value amounted to 40%. In addition, in series [1] (1 mpk dose group), the “Clinical observation: course” value is “the other rats gradually recovered”, the “Clinical observation … after administration” value is reported as 31% and the “Clinical observation: died during recovery (among animals with ataxia)” value is listed as 40%. For the same compound, in [1], the “gross dissection: lungs” value is recorded as “Focal/punctate dark red discoloration was observed in the lungs of some deceased rats”, the Body weight entry is listed as “Slow weight gain/weight loss;” and the food intake result is reported as “Decreased food intake”. Besides, in the series “Pharmacokinetics in rats” (both sexes, SD), the AUC(0-inf) was determined as 352 ng·h/mL, the Cmax was determined as 621 ng/mL, the clearance was 144 mL/min/kg and the half-life is 70.3 min. Also, in the series “Pharmacokinetics in mice” (setting [10]), the Cmax stood at 521 ng/mL and the half-life is 70.2 min.

Source of the values: patent EP4711370A1, “DEUTERATED CAMPTOTHECIN COMPOUND, AND PREPARATION THEREFOR AND USE THEREOF” (Shanghai Qilu Pharmaceutical Research and Development …, priority 2023, dated 2024).
